# Test results taken from PMC3411833, “The Two PPX-GppA Homologues from Mycobacterium tuberculosis Have Distinct Biochemical Activities” (PLoS ONE, 2012).
# T1: E. coli PPX (EC-PPX) (Escherichia coli, UniProt P0AFL6)
# T1 construct: predicted 53 kDa; dimer
# T1 sequence (P0AFL6 2-513): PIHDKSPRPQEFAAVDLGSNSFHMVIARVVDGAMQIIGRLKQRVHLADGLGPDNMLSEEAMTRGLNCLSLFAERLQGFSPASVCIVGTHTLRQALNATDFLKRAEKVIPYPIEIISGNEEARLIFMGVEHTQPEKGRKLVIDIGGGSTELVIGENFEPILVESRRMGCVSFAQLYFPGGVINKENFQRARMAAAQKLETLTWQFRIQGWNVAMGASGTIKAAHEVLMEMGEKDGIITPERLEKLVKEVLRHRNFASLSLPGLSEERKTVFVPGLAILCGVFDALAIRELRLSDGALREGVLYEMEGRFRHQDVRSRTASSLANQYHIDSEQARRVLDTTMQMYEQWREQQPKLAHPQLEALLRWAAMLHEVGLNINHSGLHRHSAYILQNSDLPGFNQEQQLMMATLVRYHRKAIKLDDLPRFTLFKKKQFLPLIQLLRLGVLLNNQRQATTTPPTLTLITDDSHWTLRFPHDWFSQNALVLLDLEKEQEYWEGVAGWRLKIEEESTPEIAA
# T2: E. coli GPP (EC-GPP, GppA) (Escherichia coli, UniProt P25552)
# T2 construct: predicted 51 kDa; dimer
# T2 sequence (P25552 1-494): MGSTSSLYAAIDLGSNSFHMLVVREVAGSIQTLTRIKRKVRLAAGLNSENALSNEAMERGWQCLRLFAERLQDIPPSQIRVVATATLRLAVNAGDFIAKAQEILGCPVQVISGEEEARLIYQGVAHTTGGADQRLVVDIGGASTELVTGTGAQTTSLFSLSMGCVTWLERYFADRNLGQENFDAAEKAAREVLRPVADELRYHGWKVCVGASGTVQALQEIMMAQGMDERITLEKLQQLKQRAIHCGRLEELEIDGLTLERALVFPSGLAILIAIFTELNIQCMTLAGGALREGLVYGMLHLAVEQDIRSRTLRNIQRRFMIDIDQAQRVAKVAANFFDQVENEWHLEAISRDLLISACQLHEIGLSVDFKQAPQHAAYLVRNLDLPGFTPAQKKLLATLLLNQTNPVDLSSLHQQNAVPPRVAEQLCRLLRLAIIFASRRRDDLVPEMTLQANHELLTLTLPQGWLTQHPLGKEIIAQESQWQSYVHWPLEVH
# B1: E. coli exopolyphosphatase (PPX) (enzyme, E. coli BL21 (DE3), UniProt P0AFL6 1-513, looked up)
# chain: MPIHDKSPRPQEFAAVDLGSNSFHMVIARVVDGAMQIIGRLKQRVHLADGLGPDNMLSEEAMTRGLNCLSLFAERLQGFSPASVCIVGTHTLRQALNATDFLKRAEKVIPYPIEIISGNEEARLIFMGVEHTQPEKGRKLVIDIGGGSTELVIGENFEPILVESRRMGCVSFAQLYFPGGVINKENFQRARMAAAQKLETLTWQFRIQGWNVAMGASGTIKAAHEVLMEMGEKDGIITPERLEKLVKEVLRHRNFASLSLPGLSEERKTVFVPGLAILCGVFDALAIRELRLSDGALREGVLYEMEGRFRHQDVRSRTASSLANQYHIDSEQARRVLDTTMQMYEQWREQQPKLAHPQLEALLRWAAMLHEVGLNINHSGLHRHSAYILQNSDLPGFNQEQQLMMATLVRYHRKAIKLDDLPRFTLFKKKQFLPLIQLLRLGVLLNNQRQATTTPPTLTLITDDSHWTLRFPHDWFSQNALVLLDLEKEQEYWEGVAGWRLKIEEESTPEIAA
# notes: also called EC-PPX; E. coli PPX; source: E. coli BL21(DE3), purified (HiTrap Chelating HP, eluted with 60 mM imidazole)
# B2: Rv0496 (MTB-PPX1) protein from Mycobacterium tuberculosis H37Rv (enzyme)
# chain: MRLGVLDVGSNTVHLLVVDAHRGGHPTPMSSTKATLRLAEATDSSGKITKRGADKLISTIDEFAKIAISSGCAELMAFATSAVRDAENSEDVLSRVRKETGVELQALRGEDESRLTFLAVRRWYGWSAGRILNLDIGGGSLEVSSGVDEEPEIALSLPLGAGRLTREWLPDDPPGRRRVAMLRDWLDAELAEPSVTVLEAGSPDLAVATSKTFRSLARLTGAAPSMAGPRVKRTLTANGLRQLIAFISRMTAVDRAELEGVSADRAPQIVAGALVAEASMRALSIEAVEICPWALREGLILRKLDSEADGTALIESSSVHTSVRAVGGQPADRNAANRSRGSKP
# B3: E. coli guanosine pentaphosphate 5'-phosphohydrolase (GPP, GppA) (enzyme, E. coli BL21 (DE3), UniProt P25552 1-494, looked up)
# chain: MGSTSSLYAAIDLGSNSFHMLVVREVAGSIQTLTRIKRKVRLAAGLNSENALSNEAMERGWQCLRLFAERLQDIPPSQIRVVATATLRLAVNAGDFIAKAQEILGCPVQVISGEEEARLIYQGVAHTTGGADQRLVVDIGGASTELVTGTGAQTTSLFSLSMGCVTWLERYFADRNLGQENFDAAEKAAREVLRPVADELRYHGWKVCVGASGTVQALQEIMMAQGMDERITLEKLQQLKQRAIHCGRLEELEIDGLTLERALVFPSGLAILIAIFTELNIQCMTLAGGALREGLVYGMLHLAVEQDIRSRTLRNIQRRFMIDIDQAQRVAKVAANFFDQVENEWHLEAISRDLLISACQLHEIGLSVDFKQAPQHAAYLVRNLDLPGFTPAQKKLLATLLLNQTNPVDLSSLHQQNAVPPRVAEQLCRLLRLAIIFASRRRDDLVPEMTLQANHELLTLTLPQGWLTQHPLGKEIIAQESQWQSYVHWPLEVH
# notes: also called EC-GPP; E. coli GPP; source: E. coli BL21(DE3), purified (HiTrap Chelating HP, eluted with 60 mM imidazole)
# Assays:
# [1] = molecular target: Rv1026 protein from Mycobacterium tuberculosis H37Rv (Mycobacterium tuberculosis H37Rv); experiment: SEC + other: dynamic light scattering
# E. coli PPX (EC-PPX) = molecular target: T1, E. coli PPX (EC-PPX); experiment: inhibition of poly-P130 hydrolysis, EnzChek phosphate release; type: biochemical; settings: poly-P130 125 µM, 1 mM MnCl2, 25 mM KCl, 50 mM HEPES pH 6.8, 37°C
# Description: inhibition of poly-P130 hydrolysis, EnzChek phosphate release on E. coli PPX (EC-PPX)
# [2] = molecular target: T2, E. coli GPP (EC-GPP, GppA); experiment: as above; type: biochemical; settings: poly-P130 125 µM, 1 mM MnCl2, 25 mM KCl, 50 mM HEPES pH 6.8, 37°C
# Description: inhibition of poly-P130 hydrolysis, EnzChek phosphate release on E. coli GPP (EC-GPP, GppA)
# [3] = molecular target: T2, E. coli GPP (EC-GPP, GppA); experiment: GTP hydrolysis, anion exchange chromatography; type: biochemical; settings: 1 mM GTP, 1 mM MnCl2, 4 mM (NH4)2SO4, 50 mM Tris-HCl pH 7.4, 37°C
# [4] = molecular target: the molecule itself; experiment: SEC + other: dynamic light scattering; Superdex 200 gel filtration calibrated with protein standards; light scattering of 2, 1 and 0.5 mg/ml protein in 25 mM Tris-HCl pH 7.4, 25 mM NaCl (DynaPro Plate Reader Plus); self-association, dimer
# [5] = molecular target: the molecule itself; experiment: SEC + other: dynamic light scattering
molecule,measurement,setting,value
Rv1026 protein from Mycobacterium tuberculosis H37Rv (enzyme),stoichiometry N,[1],2
"Nc1nc2c(ncn2[C@@H]2O[C@H](COP(=O)(O)OP(=O)(O)OP(=O)(O)O)[C@@H](OP(=O)(O)OP(=O)(O)O)[C@H]2O)c(=O)[nH]1 [pppGpp, guanosine 5′-triphosphate, 3′-diphosphate]",Exopolyphosphatase activities / +1 mM pppGpp / (% decrease) / ATPase activities,E. coli PPX (EC-PPX),89.6±20.1%
same,Exopolyphosphatase activities / +1 mM pppGpp / (% decrease) / ATPase activities,[2],29.5±4.4%
Nc1nc2c(ncn2[C@@H]2O[C@H](COP(=O)(O)OP(=O)(O)OP(=O)(O)O)[C@@H](O)[C@H]2O)c(=O)[nH]1 [GTP],"GTP hydrolysis, anion exchange chromatography",[3],the E. coli GPP protein was a highly efficient GTPase and a modest ATPase
"Nc1nc2c(ncn2[C@@H]2O[C@H](COP(=O)(O)OP(=O)(O)O)[C@@H](OP(=O)(O)OP(=O)(O)O)[C@H]2O)c(=O)[nH]1 [ppGpp, guanosine 3′,5′-bisdiphosphate]",Exopolyphosphatase activities / +1 mM ppGpp / (% decrease) / ATPase activities,E. coli PPX (EC-PPX),10.8±1.2%
same,Exopolyphosphatase activities / +1 mM ppGpp / (% decrease) / ATPase activities,[2],6.0±0.5%
B1,stoichiometry N,[4],2
B2,stoichiometry N,[5],2
B3,stoichiometry N,[4],2
